{"source": "patent US20260345485A1", "about": "“INTRATHECAL NANOPARTICLE DELIVERY FOR TREATMENT OF LEPTOMENINGEAL TUMORS WITH CORE-SHELL PARTICLES MADE OF HYPERBRANCHED POLYGLYCEROL AND POLYLACTIC ACID” (priority 2022, published 2026)", "key": {"[1]": {"test_system": "DAOY, D341, and D283 cells", "experiment": "drug combination synergy (Loewe model, CellTiter-Glo viability)", "assay_type": "cell-based"}, "[2]": {"test_system": "PARP1", "conditions": "cited from earlier work"}, "[3]": {"assay_type": "in vivo", "conditions": "i.v., after 20 minutes, tumor-bearing mice", "experimental": "CNS retention of ^89Zr-DFO-NPs was assessed in tumor-bearing mice. A leptomeningeal metastatic medulloblastoma model was administered DAOY cells stably expressing luciferase by IT injection into the CM. […] Two mice were injected intravenously with Gd-DTPA, and imaged via MRI after 20 minutes."}, "[4]": {"experiment": "tolerability / maximum tolerated dose after intrathecal dosing", "experimental": "To investigate toxicity, healthy female nude mice were first administered a specific dose of either free BMN-673 or BMN-NPs ranging from 0.03 mg/kg to 1.25 mg/kg. The mice were monitored for weight-loss or other signs of distress, and if the dose was well tolerated, 4 additional mice were dosed and monitored (n=5).\nToxicology studies were conducted in healthy female nude mice to characterize the safety of BMN-NPs in vivo. […] Increasing doses of either BMN-NP or free BMN-673 were administered to animals. Body weight loss and overall animal health were closely monitored."}, "[5]": {"experiment": "hematological toxicity after intrathecal dosing", "conditions": "for blood cell counts: at MTD", "experimental": "For hematological analysis, healthy nude mice (n=5 per time point) were administered either free BMN-673 (0.05 mg/kg) or BMN-NPs (0.5 mg/kg). At 3 days and 7 days post administration, 100 μL of blood was drawn via cardiac puncture using 15 μL EDTA-coated tubes. Levels of blood cell counts were measured using HEMA VET® HV950 multispecies hematologic analyzer (Drew Scientific, Oxford, CT, USA). Spleens and livers were harvested, fixed in formalin overnight, and H&E stained for histopathological evaluation.\nTo further test systemic toxicity differences between BMN-NPs and free BMN, red blood cells, white blood cells, and platelet levels were monitored in mice at day 3 and day 7 following two bi-weekly administrations at MTD (FIG. 5C)."}, "[6]": {"test_system": "DAOY cells", "experiment": "DAOY intracisternal xenograft, single-dose treatment", "assay_type": "in vivo, J:Nu mice", "conditions": "single dose 0.1 mg/kg", "experimental": "Intra-cisternal transplantation of DAOY cells stably expressing luciferase was used for in vivo studies. A surgical catheter was implanted into their cisterna magna, and used for both cellular implantation and IT dosage during treatment. Mice were treated when their tumoral luminescence burden was detectable at […] BLI (unit), 7 days post-implantation. Mice were treated once, at the same dose level of 0.1 mg/kg with either BMN NPs or free BMN-673 (FIG. 7A)."}, "[7]": {"test_system": "DAOY cells", "experiment": "DAOY intracisternal xenograft, twice-weekly treatment", "conditions": "0.25 mg/kg BMN-NPs or 0.03 mg/kg free BMN-673", "experimental": "DAOY cells (ATCC) were inoculated in 8 week J:Nu female mice at 10^5 cells suspended in 6 μL of DPBS. Tumor growth was followed by luminescence imaging twice a week, implantation. For luminescence imaging, mice were injected with 200 μL of a solution of D-Luciferin (15 mg/ml, Caliper Life Science) and imaged 5 minutes after injection using an IVIS200 in vivo imaging system (Xenogen, Caliper Life Science). An image showing light intensity (photons/second) was generated and the signal in each mouse was quantified using Living Image 4.0 software (Xenogen). On day 7 after tumor injection, all mice were randomized and treated with BMN-673 loaded NPs or free BMN-673 drug either once a week or bi-weekly for two weeks. Tumors were monitored for regression or progression with BLI, and left until neurological symptoms appeared or humane endpoint was reached (slow motion, >20% weight lose).\nThis study was repeated using twice-weekly dosing of 0.25 mg/kg of BMN-NPs or 0.03 mg/kg for free BMN-673 (FIGS. 7D-7F)."}, "[8]": {"test_system": "D341 cells", "experiment": "D341 xenograft with existing spinal metastasis", "assay_type": "in vivo, mice", "experimental": "In the D341 model, most mice develop spinal metastasis that is detectable by IVIS imaging within 7 days of inoculation, so it was tested whether BMN-NPs and free BMN were efficacious against existing spinal metastasis by starting treatment at day 7 in the presence of leptomeningeal metastasis. […] This therapy was improved with a temozolomide (TMZ) combination approach. The synergy between TMZ and PARPi is well documented in vitro, as PARP1 trapping sensitizes cells to the DNA methylation mechanism of TMZ, but in vivo, a reduction in the PARPi dose is necessary to prevent acute toxicity."}, "[9]": {"test_system": "medulloblastoma cell line D283", "conditions": "1 micromolar Olaparib with radiation; cited from earlier work"}, "[10]": {"test_system": "breast, prostate and ovarian cancer", "conditions": "clinical trials; cited from earlier work"}, "[11]": {"conditions": "combined with BMN-673, across all cell lines"}}, "note": "Like-named read-outs stand apart in the source and are kept apart here.", "data": [{"molecule": "CCc1c2c(nc3ccc(OC(=O)N4CCC(N5CCCCC5)CC4)cc13)-c1cc3c(c(=O)n1C2)COC(=O)[C@]3(O)CC", "note": "[Irinotecan]", "values": [{"measurement": "synergy with BMN-673", "setting": "[1]; [11]", "result": "did not show consistent synergist action"}]}, {"molecule": "CC[C@@]1(O)C(=O)OCc2c1cc1n(c2=O)Cc2cc3c(CN(C)C)c(O)ccc3nc2-1", "note": "[Topotecan]", "values": [{"measurement": "synergy with BMN-673", "setting": "[1]; [11]", "result": "did not show consistent synergist action"}]}, {"molecule": "O=NN(CCCl)C(=O)NC1CCCCC1", "note": "[Lomustine]", "values": [{"measurement": "synergy with BMN-673", "setting": "[1]; [11]", "result": "did not show consistent synergist action"}]}, {"molecule": "C[C@]1(c2nc3c(C(N)=O)cccc3[nH]2)CCCN1", "note": "[veliparib]", "values": [{"measurement": "PARP1 trapping", "setting": "[2]", "result": "relatively poor PARP1 trapping ability"}]}, {"molecule": "O=P1(N(CCCl)CCCl)NCCCO1", "note": "(stereo not shown) [Cyclophosphamide]", "values": [{"measurement": "synergy with BMN-673", "setting": "[1]", "result": "did not show consistent synergist action"}]}, {"molecule": "O=C(O)CN(CCN(CC(=O)O)CC(=O)O)CCN(CC(=O)O)CC(=O)O.[Gd+3]", "note": "[Gd-DTPA]", "values": [{"measurement": "signal in the brain by MRI", "setting": "[3]", "result": "no detectable Gd-DTPA signal in the brain"}]}, {"molecule": "Cn1ncnc1[C@H]1c2n[nH]c(=O)c3cc(F)cc(c23)N[C@@H]1c1ccc(F)cc1", "note": "[BMN-673, talazoparib]", "values": [{"measurement": "body weight loss", "setting": "[4]; 0.03 mg/kg twice a week, IT", "result": "less than 10%"}, {"measurement": "body weight loss", "setting": "[4]; 0.05 mg/kg, single IT dose", "result": "less than 15%"}, {"measurement": "dose above which toxicity-related symptoms developed (lethargy, labored breathing, death)", "setting": "[4]; IT", "result": "greater than 0.06 mg/kg"}, {"measurement": "LD50", "setting": "[4]; mouse, in vivo", "result": 0.125, "unit": "mg/kg"}, {"measurement": "MTD", "setting": "[4]; mouse, in vivo", "result": 0.05, "unit": "mg/kg"}, {"measurement": "lethal dose (lethal at any dose at or higher than)", "setting": "[4]; single IT dose, J:Nu mice", "result": "≥ 0.06", "unit": "mg/kg"}, {"measurement": "blood cell counts", "setting": "[5]; 3 days post-treatment", "result": "a decrease in all leukocytes except for monocytes, and also showed a reduction in platelet count"}, {"measurement": "blood cell counts", "setting": "[5]; by 7 days", "result": "did not show an improvement outside of basophil count"}, {"measurement": "blood cell levels", "setting": "[5]; two bi-weekly administrations, 0.05 mg/kg/week free BMN, day 3 to day 7", "result": "progressive leukopenia and thrombocytopenia at day 3 which did not improve appreciably at day 7"}, {"measurement": "body weight loss versus BMN-NP group", "setting": "[6]", "result": "lost significantly more weight than the BMN-NP group"}, {"measurement": "mice with tumor reduction benefit", "setting": "[6]", "result": "one out five"}, {"measurement": "tumor response", "setting": "[7]", "result": "tumors continued to progress with treatment of free drug"}, {"measurement": "synergy with TMZ (combinatorial index)", "setting": "[1]; Loewe synergy model, with temozolomide", "result": "high levels of synergy"}, {"measurement": "cell viability compared to BMN-673 alone", "setting": "[1]; incremental log-fold increases in BMN-673 in presence of TMZ", "result": "decreased viability"}, {"measurement": "effect on cerebral and spinal tumor burden", "setting": "[8]; four repeat doses, free BMN-673 at equitoxic dose, start day 7", "result": "no effect"}, {"measurement": "tolerability", "setting": "[8]; in combination with temozolomide", "result": "not tolerated at even the lowest doses of BMN-673"}, {"measurement": "PARP1 trapping", "setting": "[2]", "result": "potent PARP1 trap"}]}, {"molecule": "O=C(c1cc(Cc2n[nH]c(=O)c3ccccc23)ccc1F)N1CCN(C(=O)C2CC2)CC1", "note": "[Olaparib, olaparib]", "values": [{"measurement": "DNA double stranded breaks", "setting": "[9]", "result": "high levels of DSB"}, {"measurement": "anti-tumour effect and side effects", "setting": "[10]", "result": "anti-tumour effect and side effects of grade 1 or 2"}]}]}
